This note sets out measurements from patent US11311548B2, “Cancer therapy” (Aslan Pharmaceuticals Pte. Ltd., priority 2017, dated 2022).

Entries after “also recorded” stand apart in the source; their conditions may differ.

The subject of assay [1] is chronic myeloid leukaemia (CML) cell lines. Kind of assay: CellTiter-Glo Luminescent Cell Viability Assay, CML cell lines. The assay is classed as cell-based, human. The conditions noted are these: CML cell lines (K562, KCL-22), increasing dose, 48 hours. As for the experimental part: (§1) Multiple myeloma (MM) or chronic myeloid leukaemia (CML) cell lines were seeded at 20,000 cells in 100 μL of medium in 96-well format and treated with increasing dose of ASLAN003 for 48 hours. DMSO was used as control. The CellTiter-Glo® Luminescent Cell Viability Assay, which is a homogeneous method of determining the number of viable cells in culture based on quantitation of the ATP present, i.e. an indicator of metabolically active cells was then performed on the cell lines.

Assay [2] has as its system AD537 primary MDS bone marrow cells. Kind of assay: FACs analysis of primary MDS bone marrow cells. It counts as cell-based. Particulars: 96 hours. As for the experimental part:
(§2) AD345 primary MDS cells (refractory cytopenia with multilineage dysplasia, normal karyotype) and AD537 primary MDS bone marrow cells (refractory cytopenia with multilineage dysplasia, karyotype 46, XY, 43.1% myeloid) were treated with ASLAN003 (4000 nM) or DMSO control for 96 hours. A FACs analysis was then performed using Pacific blue dye. The AD537 cells were also stained with Wright-Giemsa and NBT reduction.

The subject of assay [3] is Multiple myeloma (MM) cell lines. Put plainly: CellTiter-Glo Luminescent Cell Viability Assay, MM cell lines. Particulars: increasing dose, 48 hours. It counts as cell-based, human. As for the experimental part:
as §1
On the technique in general: Cellular ATP, detected with luciferase, serves as a proxy for viable cell number.

For assay [4], the system named is MOLM-14 xenograft. Kind of assay: MOLM-14 xenograft model in NSG mice. The assay is classed as in vivo. The method, then:
NSG mice were inoculated with MOLM-14 cells via tail vein injection. Treatment by oral gavage with either ASLAN003 (50 mg/kg QD) or vehicle control was started 3 days past inoculation. 11 mice were treated in the ASLAN003 group and 12 mice were treated in the vehicle control group. The following data is collected at the end of the experiment: […]

Assay [5] relates to AD345 primary MDS cells. Put plainly: FACs analysis of primary MDS cells. It counts as cell-based. Particulars: 96 hours. The method, then:
as §2

Assay [6] deals with KG-1. Put plainly: Differentiation of AML cell line (CD11b/CD14 flow cytometry, NBT assay, Wright-Giemsa staining). The assay is classed as cell-based. The conditions noted are these: KG-1, FAB M0/M1. The method, then:
(§3) The AML cell lines were dosed with the varying concentrations of ASLAN003 and differentiation of the cell lines were observed via upregulation of CD11b and CD14 on the cell surface via flow cytometry. Differentiation was also determined using the NBT assay and from morphological observations from Wright-Giemsa staining.
For orientation: Flow cytometry measures light scatter and fluorescence of single cells or particles in a stream.

Assay [7] relates to THP-1. Described as above. It counts as cell-based. Particulars: THP-1, FAB M5. The method, then: as §3
In assay [8] the test system is HL-60. The description is as above. The assay is classed as cell-based. The conditions noted are these: HL-60, FAB M2. The method, then:
as §3

Assay [9] deals with NB-4. Described as above. The assay is classed as cell-based. The conditions noted are these: NB-4, FAB M3. As for the experimental part: as §3
For assay [10], the system named is MOLM-14. The assay is described as above. The assay is classed as cell-based. The conditions noted are these: MOLM-14, FAB M5. As for the experimental part:
as §3

Consider `COc1cccc(-c2cc(F)c(Nc3ncccc3C(=O)O)c(F)c2)c1` [ASLAN003, 2-(3,5-difluoro-3′-methoxybiphenyl-4-ylamino) nicotinic acid], for which the Cell viability entry in assay [1] and in assay [3] was “has the ability to reduce the viability” in each case. In addition, the “increase in CD13+CD33+ cells” value in assay [2] (AD537, 4 μM) was “about 12.3%”; in assay [5] (AD345, 4 μM), “about 12.3%”. Further, in assay [2] (AD537, 4 μM), the “increase in CD14+ cells” value is listed as “about 20%”. For the same compound, in [2] (AD537, 4 μM), the “increase of CD11b+ cells” value was roughly 30%. Also, the viability at 4 µM was found to be 73% in [2] (Bone marrow cell, AD537, 4000 nM, DMSO control 84.5%, read-out: % viable cells) and 86.5% in assay [5] (AD345, 4000 nM, DMSO control 93%, read-out: % viable cells). Besides, in assay [4] (50 mg/kg QD oral gavage, vs vehicle), the “Survival of MOLM-14 xenograft mice” value is listed as “significantly (p=0.031) prolonged survival”. In assay [4] (MOLM-14 xenograft NSG mice, 50 mg/kg QD oral gavage from 3 days past inoculation, vehicle group 24 days), this compound showed a Median survival of 27 days. Besides, the “Leukaemic burden (percentage of CD45+ cells)” value in [4] (bone marrow, peripheral blood, spleen and liver, 50 mg/kg QD oral gavage, flow cytometry) was “significantly decreased leukaemic burden”. The “Differentiation of leukaemic cells (hCD11b+ and hCD14+ cells)” value in assay [4] (bone marrow, 50 mg/kg QD oral gavage, flow cytometry) is recorded as “significantly induced differentiation”. For the same compound, in assay [5] (AD345, 4 μM), the “increase in CD11b+CD14+ cells” value is recorded as “about 11%”. Further, the “ASLAN003 Differentiation” value is reported as “myeloid differentiation effects of ASLAN003 were observed; also recorded: Positive” in assay [6]; “myeloid differentiation effects of ASLAN003 were observed; also recorded: Positive” in assay [7]; “did not induce observed differentiation effects; also recorded: Negative” in assay [8]; “did not induce observed differentiation effects; also recorded: Negative” in assay [9]; “myeloid differentiation effects of ASLAN003 were observed; also recorded: Positive” in assay [10].
